45 molecules from ChEMBL document CHEMBL3882724 (2013) can be followed below.

The target in the data set is T1, CYP21 (steroid 21-hydroxylase) (Homo sapiens, UniProt P08686).
T1 sequence (P08686 whole entry): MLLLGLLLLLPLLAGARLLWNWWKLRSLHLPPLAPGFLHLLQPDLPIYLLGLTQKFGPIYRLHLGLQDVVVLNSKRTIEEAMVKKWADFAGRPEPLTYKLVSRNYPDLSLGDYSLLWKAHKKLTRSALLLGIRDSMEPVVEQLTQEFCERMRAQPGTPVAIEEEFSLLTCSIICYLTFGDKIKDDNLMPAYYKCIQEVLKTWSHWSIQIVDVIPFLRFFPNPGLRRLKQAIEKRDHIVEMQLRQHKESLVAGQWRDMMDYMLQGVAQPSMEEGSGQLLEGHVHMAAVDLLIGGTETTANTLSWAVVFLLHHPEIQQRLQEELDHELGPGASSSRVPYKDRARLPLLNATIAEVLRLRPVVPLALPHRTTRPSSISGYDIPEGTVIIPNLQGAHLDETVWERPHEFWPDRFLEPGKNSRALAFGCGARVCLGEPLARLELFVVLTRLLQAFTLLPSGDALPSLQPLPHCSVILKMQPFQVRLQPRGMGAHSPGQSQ
The data set can be described thus: Inhibition of human CYP21 transfected in HEK293 cells assessed as decrease in conversion of progesterone to 11-deoxycorticosterone preincubated for 5 hrs followed by progesterone addition measured after 20 hrs by ELISA. Set-up: concentration or dose not given beside the values. Type of data set: cell-based. To be noted: HEK293 cells transfected with human CYP21, probe progesterone. For orientation: ELISA stands for enzyme-linked immunosorbent assay.
Broadly, the inhibition is the drop in the measured response relative to a control, in per cent. As to `C[C@]12CC[C@@H](NC(=O)c3nccs3)CC1=CC[C@@H]1[C@@H]2CC[C@]2(C)C(n3ccnc3)=CC[C@@H]12`, the inhibition at 20 h was in the range of 10 to 50%.
Then `CO[C@H]1CC[C@@]2(C)[C@@H](CC[C@@H]3[C@@H]2CC[C@]2(C)C(c4cnccc4C)=CC[C@@H]32)C1`, with 10 to 50%; and `CCc1cncc(C2=CC[C@H]3[C@@H]4CC[C@H]5C[C@@H](OC)CC[C@]5(C)[C@H]4CC[C@]23C)c1`, with 10 to 50%.
Then `C[C@]12CCC(=O)C=C1CC[C@@H]1[C@@H]2CC[C@]2(C)C(c3cncc(C(F)F)c3)=CC[C@@H]12`, with 10 to 50%; and `CCNC(=O)N[C@@H]1CC[C@@]2(C)C(=CC[C@@H]3[C@@H]2CC[C@]2(C)C(c4cncc(F)c4)=CC[C@@H]32)C1`, with 10 to 50%.
The result for `CC(C)(C)NC(=O)O[C@H]1CC[C@@]2(C)C(=CC[C@H]3C4=CC=C(c5cccnc5)[C@@]4(C)CC[C@@H]32)C1` reads 10 to 50%; that for `CC(C)C(=O)O[C@H]1CC[C@@]2(C)C(=CC[C@H]3C4=CC=C(c5cccnc5)[C@@]4(C)CC[C@@H]32)C1`, 10 to 50%; that for `CC1C[C@@H]2[C@H](CC[C@]3(C)C(c4cccnc4)=CC[C@@H]23)[C@@]2(C)C=C/C(=N\O)C=C12` (stereo not given in full), 10 to 50%.
In the case of `COC1CC[C@@]2(C)C(=CC[C@@H]3[C@@H]2CC[C@]2(C)C(c4cccnc4)=CC[C@@H]32)C1` (stereo not given in full), the inhibition at 20 h is < 10%.
The result for `CC1(O)C=C2CC[C@@H]3[C@H](CC[C@]4(C)C(c5cccnc5)=CC[C@@H]34)[C@@]2(C)CC1` (stereo not given in full) reads 10 to 50%; that for `C[C@]12CC[C@H](O)CC1=CC[C@@H]1[C@@H]2CC[C@]2(C)C(c3cncc(NS(=O)(=O)C(F)(F)F)c3)=CC[C@@H]12`, < 10%; that for `CC1(C)C2=CC[C@@H]3[C@H](CC[C@]4(C)C(c5cccnc5)=CC[C@@H]34)[C@@]2(C)CCC1O` (stereo not given in full), < 10%.
The result for `C[C@]12CC[C@H]3[C@@H](CC=C4C[C@@H](OC(=O)Nc5cccnc5)CC[C@@]43C)C1=CC=C2c1cccnc1` reads 10 to 50%; that for `CC1C[C@@H]2[C@H](CC[C@]3(C)C(c4cncc(C(F)F)c4)=CC[C@@H]23)[C@@]2(C)C=CC(=O)C=C12` (stereo not given in full), 10 to 50%.
Then `Cc1ccccc1C(=O)O[C@H]1CC[C@@]2(C)C(=CC[C@H]3C4=CC=C(c5cccnc5)[C@@]4(C)CC[C@@H]32)C1`, with 10 to 50%; and `CC[C@@]1(O)CC[C@@]2(C)C(CC[C@@H]3[C@@H]2CC[C@]2(C)C(c4cccnc4)=CC[C@@H]32)C1` (stereo not given in full), with < 10%; and `C[C@]12CCC3(CO3)CC1CCC1C2CC[C@]2(C)C(c3cccnc3)=CCC12` (stereo not given in full), with 10 to 50%.
As to `C[C@]12CC[C@@](O)(C3CC3)CC1CC[C@@H]1[C@@H]2CC[C@]2(C)C(c3cccnc3)=CC[C@@H]12` (stereo not given in full), the inhibition at 20 h was in the range of 10 to 50%.
Then `C[C@]12CC[C@H]3[C@@H](CCC4=CC(=O)CC[C@@]43C)C1=CC=C2c1ccc(F)nc1`, with 10 to 50%; and `C[C@]12CC[C@H]3[C@@H](CCC4=CC(=O)CC[C@@]43C)C1=CC=C2c1cncc(Cl)c1`, with 10 to 50%.
The result for `CC(=O)NC1CC[C@@]2(C)C(CC[C@@H]3[C@@H]2CC[C@]2(C)C(c4cccnc4)=CC[C@@H]32)C1C` (stereo not given in full) reads < 10%.
Then `Cc1cncc(C2=CC=C3[C@@H]4CCC5CNC(=O)CC[C@]5(C)[C@H]4CC[C@]23C)c1` (stereo not given in full), with 10 to 50%; and `CCNC(=O)NC1CC[C@@]2(C)C(=CC[C@@H]3[C@@H]2CC[C@]2(C)C(c4cncc(OC)c4)=CC[C@@H]32)C1` (stereo not given in full), with 10 to 50%.
`C[C@]12CC[C@H]3[C@@H](CC4OC45C[C@@H](O)CC[C@]35C)C1=CC=C2c1cccnc1` (stereo not given in full): the inhibition at 20 h was ≥ 50%.
The result for `CC1C[C@@H]2[C@H](CC[C@]3(C)C(c4cccnc4)=CC[C@@H]23)[C@@]2(C)CC[C@](C)(O)CC12` (stereo not given in full) reads 10 to 50%; that for `CNC1CC[C@@]2(C)[C@@H](CC[C@@H]3[C@@H]2CC[C@]2(C)C(c4cccnc4)=CC[C@@H]32)C1` (stereo not given in full), 10 to 50%; that for `CC1C(O)CC[C@@]2(C)C1CC[C@@H]1[C@@H]2CC[C@]2(C)C(c3cncc(C(F)F)c3)=CC[C@@H]12` (stereo not given in full), < 10%.
The result for `CC(C)(C)C(=O)N[C@@H]1CC[C@@]2(C)C(CC[C@@H]3[C@@H]2CC[C@]2(C)C(c4cccnc4)=CC[C@@H]32)C1` (stereo not given in full) reads 10 to 50%.
The result for `C[C@]12CCC(=O)C=C1C(C1CC1)C[C@@H]1[C@@H]2CC[C@]2(C)C(c3cncc(F)c3)=CC[C@@H]12` (stereo not given in full) reads 10 to 50%; that for `C[C@]1(O)CC[C@@]2(C)C(=CC[C@@H]3[C@@H]2CC[C@]2(C)C(c4cccnc4)=CC[C@@H]32)C1`, ≥ 50%; that for `CCc1ccncc1C1=CC=C2[C@@H]3CCC4CC(=O)NCC[C@]4(C)[C@H]3CC[C@]12C` (stereo not given in full), 10 to 50%.
As for `C[C@]12CC(F)(F)CC1CC[C@@H]1[C@@H]2CC[C@]2(C)C(c3cccnc3)=CC[C@@H]12` (stereo not given in full), the inhibition at 20 h lay within 10 to 50%.
Then `CC(=O)N(C)[C@H]1CC[C@@]2(C)C(CC[C@@H]3[C@@H]2CC[C@]2(C)C(c4cccnc4)=CC[C@@H]32)C1` (stereo not given in full), with 10 to 50%; and `CC1C(O)CC[C@@]2(C)C1CC[C@@H]1[C@@H]2CC[C@]2(C)C(c3cncc(F)c3)=CC[C@@H]12` (stereo not given in full), with < 10%.
The result for `CN1C(=O)CC[C@@]2(C)C1=CC[C@@H]1[C@@H]2CC[C@]2(C)C(c3cncc(C(F)F)c3)=CC[C@@H]12` reads < 10%; that for `CCc1ccncc1C1=CC=C2[C@@H]3CCC4C[C@@H](O)CC[C@]4(C)[C@H]3CC[C@]12C` (stereo not given in full), < 10%.
`CC1C[C@@H]2[C@H](CC[C@]3(C)C(c4cncc(C(F)F)c4)=CC[C@@H]23)[C@@]2(C)CCC(=O)C=C12` (stereo not given in full): the inhibition at 20 h was 10 to 50%.
The result for `C[C@]12CC[C@H]3[C@@H](CC(=O)C45CC4CC[C@]35C)C1=CC=C2c1cccnc1` (stereo not given in full) reads ≥ 50%; that for `CC1C[C@H]2C3=CC=C(c4ccc(F)nc4)[C@@]3(C)CC[C@@H]2[C@@]2(C)CCC(=O)C=C12` (stereo not given in full), 10 to 50%; that for `Cc1ccncc1C1=CC=C2[C@@H]3CCC4CC(=O)CC[C@]4(C)[C@H]3CC[C@]12C` (stereo not given in full), 10 to 50%.
As for `CC1C[C@H]2C3=CC=C(c4cncc(C(F)F)c4)[C@@]3(C)CC[C@@H]2[C@@]2(C)CCC(=O)C=C12` (stereo not given in full), the inhibition at 20 h is < 10%.
Turning to `C[C@]12CC[C@H](NC(=O)C(F)(F)F)CC1CC[C@@H]1[C@@H]2CC[C@]2(C)C(c3cccnc3)=CC[C@@H]12` (stereo not given in full), the inhibition at 20 h lay in the range of 10 to 50%.
As for `C[C@]12CCC(=O)C=C1C(c1ccccc1)C[C@@H]1[C@@H]2CC[C@]2(C)C(c3cccnc3)=CC[C@@H]12` (stereo not given in full), the inhibition at 20 h was < 10%.
Regarding `C[C@]12CC[C@H]3[C@@H](CC=C4C[C@@H](OC(=O)c5ccccc5)CC[C@@]43C)C1=CC=C2c1cccnc1`, the inhibition at 20 h was 10 to 50%.
In the case of `C[C@]12CCC3(CCC(=O)O3)CC1CC[C@@H]1[C@@H]2CC[C@]2(C)C(c3cccnc3)=CC[C@@H]12` (stereo not given in full), the inhibition at 20 h is < 10%.
